According to ChEMBL document CHEMBL3871307, “Discovery of Chromane Propionic Acid Analogues as Selective Agonists of GPR120 with in Vivo Activity in Rodents” (ACS Med Chem Lett, 2017):
Calls of active or inactive are those of the source. The calls are words filed in the database; no cut-off is given here.

Experiments:
[1] = target: T1, Free fatty acid receptor 4 (Homo sapiens, UniProt Q5NUL3); assay: Agonist activity at human GPR120 short isoform expressed in CHOK1 cells assessed as increase in IP1 accumulation after 60 mins by HTRF assay; format: functional, cell-based, CHO-K1
T1 sequence (Q5NUL3 whole entry): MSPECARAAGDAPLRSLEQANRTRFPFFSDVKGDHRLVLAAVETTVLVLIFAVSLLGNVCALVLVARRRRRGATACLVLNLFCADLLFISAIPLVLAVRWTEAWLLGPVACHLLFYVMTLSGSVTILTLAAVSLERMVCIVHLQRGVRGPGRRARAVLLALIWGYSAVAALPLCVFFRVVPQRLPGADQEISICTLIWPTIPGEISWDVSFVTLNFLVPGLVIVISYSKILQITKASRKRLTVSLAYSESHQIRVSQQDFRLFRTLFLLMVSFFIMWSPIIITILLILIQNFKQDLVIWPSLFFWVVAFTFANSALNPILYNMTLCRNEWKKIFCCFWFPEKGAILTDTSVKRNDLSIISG

[2] = target: Free fatty acid receptor 1 (Homo sapiens, UniProt O14842); assay: Agonist activity at human GPR40 expressed in HEK293 cells assessed as increase in IP1 accumulation after 60 mins by HTRF assay; format: functional, cell-based
Free fatty acid receptor 1, sequence (O14842 whole entry): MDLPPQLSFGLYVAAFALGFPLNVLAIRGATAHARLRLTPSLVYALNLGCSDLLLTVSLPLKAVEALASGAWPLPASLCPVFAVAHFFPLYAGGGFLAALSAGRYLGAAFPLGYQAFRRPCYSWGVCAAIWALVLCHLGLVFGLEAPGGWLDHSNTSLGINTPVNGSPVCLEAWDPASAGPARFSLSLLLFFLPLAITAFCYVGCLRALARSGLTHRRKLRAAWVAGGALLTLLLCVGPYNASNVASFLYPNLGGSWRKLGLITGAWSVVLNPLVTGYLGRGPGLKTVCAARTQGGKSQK

[3] = Terminal half life in rat plasma at 0.1 mg/kg administered as iv casette dose by LC/MS/MS analysis; format: ADME, organism-based; settings: read-out: beta t1/2 (converted)
[4] = Intrinsic clearance in rat plasma at 0.1 mg/kg administered as iv casette dose by LC/MS/MS analysis; format: ADME, organism-based; settings: in vivo
Mus musculus [5] = assay: Glucose lowering effect in C57BL/6 transverse aortic constriction mouse assessed as reduction in blood glucose at 3 to 30 mg/kg, po via gavage pretreated for 60 mins followed by dextrose challenge measured up to 120 mins post glucose challenge by OGTT; format: functional, organism-based
Mus musculus [6] = assay: Glucose lowering effect in C57BL/6 transverse aortic constriction mouse assessed as reduction in blood glucose pretreated for 60 mins via oral gavage followed by dextrose challenge measured up to 120 mins post glucose challenge by OGTT; format: functional
[7] = Plasma concentration in C57BL/6 transverse aortic constriction mouse at 10 mg/kg, po via gavage measured at 3 hrs; format: ADME, organism-based; settings: C57BL/6, mouse
[8] = Plasma concentration in C57BL/6 transverse aortic constriction mouse at 30 mg/kg, po via gavage measured at 3 hrs; format: ADME, organism-based; settings: C57BL/6, mouse
Mus musculus [9] = assay: In vivo agonist activity at GPR120 in wild type C57BL/6 transverse aortic constriction mouse assessed as glucose lowering effect at 150 mg/kg, po via gavage pretreated for 60 mins followed by dextrose challenge measured up to 120 mins post glucose challenge by OGTT; format: functional, organism-based
Cytochrome P450 3A4 = Cytochrome P450 3A4 (Homo sapiens, UniProt P08684); assay: Inhibition of human CYP3A4; format: ADME
Cytochrome P450 3A4, sequence (P08684 whole entry): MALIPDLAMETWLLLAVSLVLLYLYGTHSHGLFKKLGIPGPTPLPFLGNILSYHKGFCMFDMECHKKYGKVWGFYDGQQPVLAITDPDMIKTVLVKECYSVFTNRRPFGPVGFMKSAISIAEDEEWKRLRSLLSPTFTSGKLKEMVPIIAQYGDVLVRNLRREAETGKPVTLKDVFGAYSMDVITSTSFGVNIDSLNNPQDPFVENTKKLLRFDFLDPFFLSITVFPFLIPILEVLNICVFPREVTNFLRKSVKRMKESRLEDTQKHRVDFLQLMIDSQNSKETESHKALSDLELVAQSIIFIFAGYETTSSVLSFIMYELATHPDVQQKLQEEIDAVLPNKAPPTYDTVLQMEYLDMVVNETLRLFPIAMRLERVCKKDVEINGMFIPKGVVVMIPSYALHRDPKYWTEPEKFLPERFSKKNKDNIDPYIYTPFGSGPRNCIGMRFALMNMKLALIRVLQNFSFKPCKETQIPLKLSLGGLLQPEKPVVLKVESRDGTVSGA

Cytochrome P450 2C9 = Cytochrome P450 2C9 (Homo sapiens, UniProt P11712); assay: Inhibition of human CYP2C9; format: ADME
Cytochrome P450 2C9, sequence (P11712 whole entry): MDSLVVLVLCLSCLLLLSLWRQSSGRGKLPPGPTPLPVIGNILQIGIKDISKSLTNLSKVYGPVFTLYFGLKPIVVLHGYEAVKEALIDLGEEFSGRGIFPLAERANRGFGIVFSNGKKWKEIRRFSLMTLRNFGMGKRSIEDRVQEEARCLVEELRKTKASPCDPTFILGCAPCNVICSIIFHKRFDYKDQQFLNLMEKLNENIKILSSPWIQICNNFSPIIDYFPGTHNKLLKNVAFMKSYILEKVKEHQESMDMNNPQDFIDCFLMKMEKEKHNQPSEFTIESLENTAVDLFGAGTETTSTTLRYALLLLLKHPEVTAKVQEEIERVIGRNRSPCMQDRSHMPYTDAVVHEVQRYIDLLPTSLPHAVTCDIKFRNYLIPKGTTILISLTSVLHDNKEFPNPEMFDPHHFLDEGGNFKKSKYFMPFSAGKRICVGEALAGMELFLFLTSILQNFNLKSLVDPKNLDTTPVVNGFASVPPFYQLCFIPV

[10] = target: T2, Peroxisome proliferator-activated receptor alpha (Homo sapiens) (UniProt Q07869); assay: Activity at PPARalpha (unknown origin)
T2 sequence (whole entry): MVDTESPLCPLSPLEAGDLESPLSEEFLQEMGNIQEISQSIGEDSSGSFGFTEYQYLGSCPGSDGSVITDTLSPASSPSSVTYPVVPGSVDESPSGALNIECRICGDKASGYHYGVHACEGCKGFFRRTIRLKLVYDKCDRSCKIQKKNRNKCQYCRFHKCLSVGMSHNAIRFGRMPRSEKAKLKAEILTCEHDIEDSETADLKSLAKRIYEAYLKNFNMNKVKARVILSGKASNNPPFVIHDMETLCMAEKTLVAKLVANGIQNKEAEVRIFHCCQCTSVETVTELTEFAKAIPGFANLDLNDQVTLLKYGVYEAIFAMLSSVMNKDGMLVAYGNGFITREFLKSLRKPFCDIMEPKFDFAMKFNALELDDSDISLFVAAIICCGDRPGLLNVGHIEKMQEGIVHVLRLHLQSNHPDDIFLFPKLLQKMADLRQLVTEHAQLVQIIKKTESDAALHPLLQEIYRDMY

[11] = Clearance in rat plasma at 1 mg/kg, iv or 2 mg/kg, po by LC/MS/MS analysis; format: ADME, organism-based
[12] = Volume of distribution at steady state in rat plasma at 1 mg/kg, iv or 2 mg/kg, po by LC/MS/MS analysis; format: ADME, organism-based; settings: read-out: Vdss
[13] = Terminal half life in rat plasma at 1 mg/kg, iv or 2 mg/kg, po by LC/MS/MS analysis; format: ADME, organism-based; settings: read-out: beta t1/2 (converted)
[14] = Mean residence time in rat plasma at 1 mg/kg, iv or 2 mg/kg, po by LC/MS/MS analysis; format: ADME, organism-based
[15] = Protein binding in rat plasma at 1 mg/kg, iv or 2 mg/kg, po by LC/MS/MS analysis; format: ADME, organism-based; settings: read-out: PPB (converted)
[16] = Clearance in mouse plasma at 2 mg/kg, iv or 30 mg/kg, po by LC/MS/MS analysis; format: ADME, organism-based
[17] = Volume of distribution at steady state in mouse plasma at 2 mg/kg, iv or 30 mg/kg, po by LC/MS/MS analysis; format: ADME, organism-based; settings: read-out: Vdss
[18] = Oral bioavailability in mouse plasma at 30 mg/kg by LC/MS/MS analysis; format: ADME, organism-based
[19] = Protein binding in mouse plasma at 2 mg/kg, iv or 30 mg/kg, po by LC/MS/MS analysis; format: ADME, organism-based; settings: read-out: PPB (converted)
[20] = Intrinsic clearance in mouse plasma at 2 mg/kg, iv or 30 mg/kg, po by LC/MS/MS analysis; format: ADME, organism-based; settings: in vivo
[21] = AUC in rhesus monkey plasma at 0.5 mg/kg, iv by LC/MS/MS analysis; format: ADME, organism-based, Macaca mulatta
[22] = Clearance in rhesus monkey plasma at 0.5 mg/kg, iv or 1 mg/kg, po by LC/MS/MS analysis; format: ADME, organism-based, Macaca mulatta
[23] = Mean residence time in rhesus monkey plasma at 0.5 mg/kg, iv or 1 mg/kg, po by LC/MS/MS analysis; format: ADME, organism-based, Macaca mulatta
[24] = Oral bioavailability in rhesus monkey plasma at 1 mg/kg by LC/MS/MS analysis; format: ADME, organism-based, Macaca mulatta
[25] = Protein binding in rhesus monkey plasma at 0.5 mg/kg, iv or 1 mg/kg, po by LC/MS/MS analysis; format: ADME, organism-based, Macaca mulatta; settings: read-out: PPB (converted)
[26] = Plasma concentration in C57BL/6 mouse oral glucose tolerance test at 3 mg/kg, po via gavage measured at 3 hrs

For `CO[C@H]1C[C@H](Oc2cc(F)c(F)c(-c3ccc4c(c3)CC[C@H](CCC(=O)O)O4)n2)C1`, the EC50 [1] was 0.035 µM, the EC50 [2] was over 10 µM and the half-life [3] was 2.1 h. For the same molecule, the CL [4] was 560 mL/min/kg, the Activity (Mus musculus [5]) was “Active” and the Activity (Mus musculus [6]) was “Dose-dependent effect”. It also gave a minimal effective dose (Mus musculus [6]; C57BL/6, Blood, read-out: MED) of 10 mg/kg, a concentration at 3 h [7] of 1170 nM and a concentration at 3 h [8] of 3120 nM. For the same molecule, the Activity (Mus musculus [9]) was “Active”, the IC50 (Cytochrome P450 3A4) was over 50 µM and the IC50 (Cytochrome P450 2C9) was over 50 µM. It also gave an Activity [10] of over 10 µM, a clearance [11] of 1.1 mL/min/kg and a Vd [12] of 0.3 L/kg. The half-life [13] was 4.6 h, the MRT [14] was 4.6 h and the fraction unbound [15] was 0.0024. For the same molecule, the clearance [16] was 9.9 mL/min/kg, the Vd [17] was 1.4 L/kg and the bioavailability [18] was 76%. The fraction unbound [19] was 0.0033, the CL [20] was 3400 mL/min/kg and the AUC [21] was 57.8 µM·h. The clearance [22] was 0.33 mL/min/kg, the MRT [23] was 13.5 h and the bioavailability [24] was 82%. The fraction unbound [25] was 0.0022 and the concentration at 3 h [26] was 750 nM.
